{"source": "patent US20080206322A1", "about": "“Pharmaceutical Multiparticulate Composit Ion Comprising Mycophenolic Acid or Myco Phenolate Sodium and Combination Compositions with Rapamycin” (NOVARTIS AG, priority 2004, published 2008)", "assay": "Solubility in acidic medium", "assay_type": "physicochemical", "note": "Like-named read-outs stand apart in the source and are kept apart here.", "data": [{"smiles": "COc1c(C)c2c(c(O)c1C/C=C(\\C)CCC(=O)O)C(=O)OC2", "note": "[mycophenolic acid]", "values": [{"measurement": "solubility in acidic medium", "result": "low solubility"}, {"measurement": "solubility in acidic medium", "setting": "listed as MPA", "result": "poor solubility"}]}]}
